This is an account of results in US9290541B2, “TCL1 peptides for immunotherapy” (Board of Regents, The University of Texas System, priority 2011, dated 2016).

Assay [1] has as its system autologous FL tumor cells. Briefly: Mechanism of cytotoxicity of TCL1-specific CTLs against autologous follicular lymphoma cells. As to conditions: effector:target 20:1; 4 hour chromium-51 release; antibodies 10 μg/ml. It counts as cell-based, human. The procedure:
FIG. 10: Mechanism of cytotoxicity of TCL1-specific CTLs against autologous follicular lymphoma cells. TCL1-specific T cells were generated from PBMC obtained from a FL patient and cultured with autologous FL tumor cells preincubated with or without 10 μg/ml of MHC class I, class II, and isotype control antibodies at a ratio of 20:1 (Effector:Target). A standard 4 hour chromium-51 release assay was performed. MHC class I but not MHC class II or isotype control antibodies inhibited the cytolysis autologous lymphoma cells.

In another assay the target is T1, HLA-A2 (Homo sapiens, UniProt P04439, D140Y/D185E/D98H/E176V/E277Q/G131W/G231S/I119V/I121R/I166T/I218V/L300P/L318F/N151K/N90K/P208A/P217A/Q86G/Q94H/R138H/R169H/T345S).
T1 construct: endogenous in cells; host or cells: T2 hybridoma cells (TAP-deficient, HLA-A2+)
Briefly: HLA-A2-binding assay (T2 binding index). The conditions noted are these: T2 cells, 20 μg/ml peptide, 24 hours. The protocol:
(§1) FIGS. 4A-D: TCL171-78 is the minimal HLA-A*0201-binding peptide. (FIG. 4A) TCL165-79 peptide-specific T cells derived from HLA-A2^+ normal donors were incubated in the presence or absence of T2 cells and TCL165-79 derived truncated peptides (SEQ ID NOS:1-2; SEQ ID NOS:12-17; SEQ ID NOS:3-11; and SEQ ID NO:18) Flu matrix peptide (FMP58-66) and Gag77-85 peptide were used as controls. After 18 hours, the production of IFN-γ was determined in the supernatants by ELISA. (FIG. 4B) T2 cells were incubated with TCL165-79-derived truncated peptides (SEQ ID NOS:1-2; SEQ ID NOS:12-17; SEQ ID NOS:3-11; and SEQ ID NO:18), and the HLA-A2 binding affinity of each peptide was determined by flow cytometry. The T2 binding index was calculated as described in Materials and Methods. […] (FIG. 4D) TCL165-79 peptide-specific CD8^+ T cells or irrelevant T-cell line were stained with TCL171-78 or HIV Gag77-85 tetramers and analyzed by flow cytometry. […]
TAP-deficient T2 cells were incubated with 20 μg/ml of peptides and 3 μg/ml of β2-microglobulin (Sigma-Aldrich, Cat # M4890) for 24 hours at 37° C. and 5% CO2 in air. The cells were then stained with anti-HLA-A2 PE antibody (BD Biosciences, Cat #560168), and the level of HLA-A2 expression was determined by flow cytometry. […]

For assay [2], the system named is TCL165-79 peptide-specific T cells. Briefly: IFN-γ ELISA of peptide-specific T cells with peptide-pulsed T2 cells or B lymphoblastoid cell lines. It counts as cell-based, human. As to conditions: normal donor-derived T cells; 18 hours. The procedure:
FIGS. 3A-E: TCL1-specific cytotoxic T cells can be generated from normal donors. (FIG. 3A) PBMCs from HLA-A2^+ normal donors were stimulated with overlapping 15-mer peptides spanning the entire length of the TCL1 protein (see Table 2). T cells from each condition were washed and incubated with autologous CD3-depleted PBMC as antigen-presenting cells (APC) in the presence or absence of the corresponding peptide. After 18 hours, the production of IFN-γ was determined in the supernatants by ELISA. Asterisk indicates significant IFN-γ production compared with control (P<0.05). Representative data from one of three normal donors tested is shown. (FIG. 3B) T cell lines generated from HLA-A2^+ normal donors using TCL165-79 peptide were incubated with APC in the presence or absence of the TCL165-79 peptide or control HIV Gag77-85 peptide, and intracellular cytokine assay was performed. The percentage of CD4^+ and CD8^+ T cells producing IFN-γ are shown. (FIG. 3C) TCL165-79 peptide-specific T cells were incubated with T2 cells or EBV-transformed B lymphoblastoid cell lines (IHW1003, IHW1019, IHW1089, and IHW1135) mismatched at their MHC class I locus in the presence of the TCL165-79 peptide or control HIV Gag77-85 peptide. IFN-γ production was determined as in (FIG. 3A). The HLA-A alleles for each of the cell lines are shown. (FIG. 3D, FIG. 3E) A 4-hour ^51Cr-release cytotoxicity assay was performed. TCL165-79 peptide-specific T cells were incubated with T2 cells alone or T2 cells pulsed with TCL165-79 peptide or control HIV Gag77-85 peptide, at various effector:target ratios. For MHC blocking assay, an effector:target ratio of 20:1 was used in the presence or absence of isotype control antibody or blocking antibodies against MHC class I, MHC class II, HLA-A2, or HLA-B and C. […]
as §1, with “(FIG. 4A) TCL165-79 peptide-specific T cells derived from HLA-A2^+ normal donors were incubated in the presence or absence of T2 cells and TCL165-79 derived truncated peptides (SEQ ID NOS:1-2; SEQ ID NOS:12-17; SEQ ID NOS:3-11; and SEQ ID NO:18) Flu matrix peptide (FMP58-66) and Gag77-85 peptide were used as controls.” left out
(§2) FIGS. 6A-E: TCL171-78 peptide-specific T cells can be generated from lymphoma patients. (FIG. 6A) PBMC and tumor-infiltrating lymphocytes (TILs) derived from HLA-A2^+ patients with chronic lymphocytic leukemia (CLL) or follicular lymphoma (FL) were stimulated in vitro with TCL165-79 After five stimulations, IFN-γ production in response to TCL165-79 peptide was determined as in FIG. 3A. […]

For another assay, the system named is T2 cells. Briefly: 4-hour 51Cr-release cytotoxicity assay with peptide-pulsed T2 cells. The class given is cell-based, human. The conditions noted are these: 4-hour 51Cr release. The procedure:
FIGS. 3A-E: TCL1-specific cytotoxic T cells can be generated from normal donors. (FIG. 3A) PBMCs from HLA-A2^+ normal donors were stimulated with overlapping 15-mer peptides spanning the entire length of the TCL1 protein (see Table 2). T cells from each condition were washed and incubated with autologous CD3-depleted PBMC as antigen-presenting cells (APC) in the presence or absence of the corresponding peptide. After 18 hours, the production of IFN-γ was determined in the supernatants by ELISA. Asterisk indicates significant IFN-γ production compared with control (P<0.05). Representative data from one of three normal donors tested is shown. (FIG. 3B) T cell lines generated from HLA-A2^+ normal donors using TCL165-79 peptide were incubated with APC in the presence or absence of the TCL165-79 peptide or control HIV Gag77-85 peptide, and intracellular cytokine assay was performed. The percentage of CD4^+ and CD8^+ T cells producing IFN-γ are shown. (FIG. 3C) TCL165-79 peptide-specific T cells were incubated with T2 cells or EBV-transformed B lymphoblastoid cell lines (IHW1003, IHW1019, IHW1089, and IHW1135) mismatched at their MHC class I locus in the presence of the TCL165-79 peptide or control HIV Gag77-85 peptide. IFN-γ production was determined as in (FIG. 3A). The HLA-A alleles for each of the cell lines are shown. (FIG. 3D, FIG. 3E) A 4-hour ^51Cr-release cytotoxicity assay was performed. TCL165-79 peptide-specific T cells were incubated with T2 cells alone or T2 cells pulsed with TCL165-79 peptide or control HIV Gag77-85 peptide, at various effector:target ratios. For MHC blocking assay, an effector:target ratio of 20:1 was used in the presence or absence of isotype control antibody or blocking antibodies against MHC class I, MHC class II, HLA-A2, or HLA-B and C. All cytotoxicity assays were performed in triplicate wells and mean and standard deviation are shown.
as §1, §2

The subject of the next assay is CD8+ T cells. Description: Tetramer staining by flow cytometry. It counts as cell-based, human. The conditions noted are these: for percentage of tetramer positive CD8+ T cells, median / percentage of tetramer positive CD8+ T cells, range: two in vitro stimulations with TCL165-79. The procedure: FIGS. 4A-D: TCL171-78 is the minimal HLA-A*0201-binding peptide. (FIG. 4A) TCL165-79 peptide-specific T cells derived from HLA-A2^+ normal donors were incubated in the presence or absence of T2 cells and TCL165-79 derived truncated peptides (SEQ ID NOS:1-2; SEQ ID NOS:12-17; SEQ ID NOS:3-11; and SEQ ID NO:18) Flu matrix peptide (FMP58-66) and Gag77-85 peptide were used as controls. After 18 hours, the production of IFN-γ was determined in the supernatants by ELISA. (FIG. 4B) T2 cells were incubated with TCL165-79-derived truncated peptides (SEQ ID NOS:1-2; SEQ ID NOS:12-17; SEQ ID NOS:3-11; and SEQ ID NO:18), and the HLA-A2 binding affinity of each peptide was determined by flow cytometry. The T2 binding index was calculated as described in Materials and Methods. (FIG. 4C) TCL165-79 (SEQ ID NO:1) peptide-specific T cells were incubated with T2 cells pulsed with TCL165-79-derived truncated peptides (SEQ ID NO:1; SEQ ID NO:8; SEQ ID NO:10; SEQ ID NO:11; SEQ ID NO:18) or control HIV Gag77-85 peptide and a 4-hour ^51Cr-release cytotoxicity assay was performed. The percent specific lysis is shown. (FIG. 4D) TCL165-79 peptide-specific CD8^+ T cells or irrelevant T-cell line were stained with TCL171-78 or HIV Gag77-85 tetramers and analyzed by flow cytometry. The percentage of tetramer positive T cells is shown. Data in panels A-D are representative of three independent experiments each.
FIGS. 6A-E: TCL171-78 peptide-specific T cells can be generated from lymphoma patients. (FIG. 6A) PBMC and tumor-infiltrating lymphocytes (TILs) derived from HLA-A2^+ patients with chronic lymphocytic leukemia (CLL) or follicular lymphoma (FL) were stimulated in vitro with TCL165-79 After five stimulations, IFN-γ production in response to TCL165-79 peptide was determined as in FIG. 3A. (FIG. 6B, FIG. 6E) The cytotoxic function of TCL165-79 peptide-specific T cells generated above was tested against T2 cells pulsed with TCL165-79 peptide or HIV Gag77-85 peptide (FIG. 6B) or primary autologous or allogeneic HLA-A2^+ or HLA-A2^− mantle cell lymphoma (MCL Tu) or FL tumor cells (FL Tu) or tumor-free PBMC from MCL3 and FL5 patients (MCL3-PB and FL5-PB) or HLA-A2^+ MCF-7 cell line (FIG. 6E). (FIG. 6C) The percentage of tetramer positive CD8^+ T cells in each of the TCL1-specific T-cell lines generated from lymphoma patients is shown. (FIG. 6D) The expression of TCL1 in each of the primary lymphoma samples as determined by flow cytometry is shown. All cytotoxicity assays were performed in triplicate wells and mean and standard deviation are shown. CLL1-PB-T: TCL1-specific CTL generated from peripheral blood T cells of CLL patient 1; FL5-PB-T: TCL1-specific CTL generated from peripheral blood T cells of FL patient 5; FL5-TILs-T: TCL1-specific CTL generated from tumor infiltrating T cells of FL patient 5.
FIGS. 7A-B: TCL171-78 peptide-specific T cells are increased in lymphoma patients. PBMCs from HLA-A2^+ normal donors (ND, n=8) or lymphoma patients [chronic lymphocytic leukemia (CLL, n=2), mantle cell lymphoma (MCL, n=5); follicular lymphoma (FL, n=4); diffuse large B-cell lymphoma (n=2); splenic marginal zone B-cell lymphoma (SMZL, n=2)] were stimulated in vitro twice with TCL165-79 peptide and stained with TCL171-78 tetramer or HIV Gag77-85 tetramer. Representative data of the tetramer staining (FIG. 7A) and results from all samples analyzed (FIG. 7B) are shown. P value on the top of graph represents comparison between normal donors and all lymphoma patient samples. P values to the right represent comparison between normal donors and patients from each lymphoma subtype. All P values were calculated by two-tailed Student's t test.
Flow cytometry. For intracellular staining, tumor or normal B cells were first surface stained with CD3 and CD20 and then fixed and permeabilized using BD Biosciences Cytofix/Cytoperm™ Plus Fixation/Permeabilization kit as per manufacturer's instructions. […]

Setting [3] is: PBMC of HLA-A2+ lymphoma patients (N=15).

Turning to `C/C=C/[C@H]1O[C@@](O)([C@@H](C)[C@H](O)[C@H](C)[C@H]2OC(=O)/C(OC)=C/C(C)=C/[C@@H](C)[C@@H](O)[C@@H](CC)[C@@H](O)[C@H](C)C/C(C)=C/C=C/[C@@H]2OC)C[C@@H](O[C@H]2C[C@@H](O)[C@H](OC(N)=O)[C@@H](C)O2)[C@@H]1C` [Concanamycin A], the “inhibition of cytolysis of autologous lymphoma cells by TCL1-specific CTLs” value in assay [1] is given as “significantly inhibited”.

As for LLPIMWQL [TCL171-78], the “binding to HLA-A2” value with HLA-A2 was “bound to HLA-A2”. The “IFN-γ production by TCL165-79 peptide-specific T cells with T2 cells pulsed with truncated peptides” value in assay [2] was “induced significant IFN-γ production”. Also, in the assay with T2 cells, the “lysis of T2 cells pulsed with truncated peptides by TCL165-79 peptide-specific T cells” value (“lysis of T2 cells pulsed” below) was “specifically lysed”. Besides, in the assay on CD8+ T cells (setting [3]), the “percentage of tetramer positive CD8+ T cells, median” value was 2.8% and the “percentage of tetramer positive CD8+ T cells, range” value is recorded as 0.88-6%. In addition, the “tetramer positive CD8+ T cells” value in the assay with CD8+ T cells (T-cell lines from lymphoma patients, TCL171-78 tetramer) is 10.8-23%. In the assay with CD8+ T cells (normal donor PBMC (N=8)), the “percentage of tetramer positive CD8+ T cells, median” value was 1.35% and the “percentage of tetramer positive CD8+ T cells, range” value is listed as 0.38-2.2%. In addition, the “tetramer positive TCL165-79 peptide-specific CD8+ T cells” value in the assay on CD8+ T cells (normal donor-derived T cell line, TCL171-78 tetramer) turned out to be 8.2%.

As to LLPIMWQLY [TCL171-79], the “lysis of T2 cells pulsed” value in the assay with T2 cells is “specifically lysed”.

As to SLLPIMWQL [TCL170-79], the “lysis of T2 cells pulsed” value in the assay with T2 cells was “specifically lysed”.
